Earlier results, collected in patent US20060191043A1, “Low maintenance turfgrass” (priority 2004, published 2006).

What was measured:
[1] = target: native EPSPS from E. coli (Escherichia coli, UniProt P0A6D3); details: read-out: apparent Km for PEP
[2] = target: glyphosate-resistant EPSPS isolate having a single amino acid substitution of an alanine for the glycine at position 96 (Escherichia coli, UniProt P0A6D3, G96A); details: alanine for glycine at position 96, read-out: apparent Ki for glyphosate
glyphosate-resistant EPSPS isolate having a single amino acid substitution of an alanine for the glycine at position 96, sequence (P0A6D3 whole entry G96A): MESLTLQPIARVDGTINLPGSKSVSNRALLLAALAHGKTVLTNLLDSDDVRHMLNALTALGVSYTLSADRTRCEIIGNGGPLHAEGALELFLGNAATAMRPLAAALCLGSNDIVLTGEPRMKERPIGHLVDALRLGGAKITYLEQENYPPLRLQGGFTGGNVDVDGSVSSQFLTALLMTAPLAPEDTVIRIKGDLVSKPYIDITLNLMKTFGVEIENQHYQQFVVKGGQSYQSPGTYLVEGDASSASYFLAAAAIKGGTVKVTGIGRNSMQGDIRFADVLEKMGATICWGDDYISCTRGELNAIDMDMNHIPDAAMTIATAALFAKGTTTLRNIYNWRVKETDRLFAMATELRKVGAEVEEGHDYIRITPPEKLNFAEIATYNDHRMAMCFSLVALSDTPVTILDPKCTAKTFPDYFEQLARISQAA

native EPSPS from E. coli, sequence (P0A6D3 whole entry): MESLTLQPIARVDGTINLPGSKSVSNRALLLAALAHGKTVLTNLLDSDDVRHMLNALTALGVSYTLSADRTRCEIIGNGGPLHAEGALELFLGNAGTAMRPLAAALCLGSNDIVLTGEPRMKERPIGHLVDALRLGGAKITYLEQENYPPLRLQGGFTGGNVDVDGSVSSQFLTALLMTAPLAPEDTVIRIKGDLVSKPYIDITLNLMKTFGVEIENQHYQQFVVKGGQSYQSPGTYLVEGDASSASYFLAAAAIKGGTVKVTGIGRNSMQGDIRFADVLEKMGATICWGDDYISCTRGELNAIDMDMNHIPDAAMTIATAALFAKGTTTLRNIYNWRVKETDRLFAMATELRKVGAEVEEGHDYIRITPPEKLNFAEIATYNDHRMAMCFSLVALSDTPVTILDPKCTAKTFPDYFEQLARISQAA

SMILES	Km [1] [µM]	Ki [2] [mM]
C=C(OP(=O)(O)O)C(=O)O [PEP]	10	
O=C(O)CNCP(=O)(O)O [glyphosate, N-phosphonomethylglycine]		4
